Values of other authors as cited in patent US8044020B2, “Pharmaceutical compositions and methods for insulin treatment” (CPEX Pharmaceuticals, Inc., priority 2003, dated 2011).

Conditions: beagles; previously determined (Hseih, 1993)

Compound: O=C1CCCCCCCCCCCCCCO1 [Cyclopentadecanolide]
- effect on migration of insulin through the nasal mucosa: facilitates the migration of insulin through the nasal mucosa
